The values that follow come from paper PMC8186431, “Synthesis and biological evaluation of thiazolidinedione derivatives with high ligand efficiency to P. aeruginosa PhzS” (Journal of Enzyme Inhibition and Medicinal Chemistry, 2021).

Each structure is given as a SMILES string. “Also recorded” adds a separate entry of the source.

One data set deals with T1, PaPhzS (Pseudomonas aeruginosa, UniProt Q9HWG9).
T1 construct: implied by pET28a and the HisTrap purification; made in house; host or cells: E. coli Rosetta (DE3)
T1 sequence (Q9HWG9 whole entry): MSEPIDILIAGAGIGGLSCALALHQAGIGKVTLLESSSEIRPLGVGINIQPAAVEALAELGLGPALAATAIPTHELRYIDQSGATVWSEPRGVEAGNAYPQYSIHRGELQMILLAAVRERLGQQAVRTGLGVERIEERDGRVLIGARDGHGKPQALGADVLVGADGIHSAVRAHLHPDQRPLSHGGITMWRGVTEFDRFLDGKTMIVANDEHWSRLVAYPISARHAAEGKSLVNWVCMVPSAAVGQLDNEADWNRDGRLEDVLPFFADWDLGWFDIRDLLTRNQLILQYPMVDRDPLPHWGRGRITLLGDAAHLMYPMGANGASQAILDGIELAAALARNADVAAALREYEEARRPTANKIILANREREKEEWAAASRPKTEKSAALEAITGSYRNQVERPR
The experiment in a line: Compounds' affinity calculation by TSA (fraction of unfolded protein, DSFit software). The format is binding, P. aeruginosa. The following applies: for BEI (DSFit software): BEI: (pKd/MW)×1000, from DSFit Kd; for Kd: Kd (DSFit software), TSA, fraction of unfolded PaPhzS at 43 °C, PaPhzS 5 µM, ligand 3.12 to 200 µM; for LE (DSFit software): LE: 1.4*pKd/HA, from DSFit Kd. The method, then:
The effect of ligand’s concentration (ranging from 3.12 to 200 µM) over the PaPhzS Tm (5 µM final concentration) was evaluated using the same parameters described in section (2.2.2). […] The ΔCp value (0.69) required for this calculation was predicted by hydrophobic surface area-based method available on http://www.ibi.vu.nl/programs/bicepwww/. Briefly, the heat capacity (C) was calculated at two temperatures: 25 °C (before PhzS unfolding [T1]) and 50 °C (after PzhS unfolding [T2]) using Equation (2). C = 332.66 ± 18.9 X (273.15 − T) + 52089 ± 1353 (2) [drawing 2] where T stands for temperature in Kelvin. Therefore T1 = 298.15 K, T2 = 323.15 K.
Bai and co-workers devised an elegant workaround that limitation, which relies on the percentage of unfolded protein at a fixed temperature. […] According to Bai and co-workers (2019) Kd values close to the protein concentration (5 µM) or lower should be taken with scepticism. […] As these Kd values were obtained at a temperature higher than the physiologic one, we decided to employ an orthogonal assay to evaluate the compounds’ affinity. In order to achieve this goal, PaPhzS was labelled with FITC and the effects of different concentration of each inhibitor on the covalently modified PaPhzS was monitored at 25 °C (Figure 5).

For another data set, the target named is PhzS from P. aeruginosa. On the set-up: method as in PMID 32772556. The conditions noted are these: Kd value calculated by microscale thermophoresis; cited from earlier work.
Data set [1] deals with T2, PhzS from P. aeruginosa (PaPhzS) (Pseudomonas aeruginosa, UniProt Q9HWG9).
T2 construct: implied by pET28a and the HisTrap purification; made in house; host or cells: E. coli Rosetta (DE3)
T2 sequence (Q9HWG9 whole entry): as above
The experiment in a line: Thermal shift assay (TSA) screening of thiazolidinedione derivatives. In kind it is binding. The conditions noted are these: different concentrations (3.12–100.0 µM). On the procedure: TSA assays were performed on Applied Biosystems 7500 RT-PCR (Applied Biosystems, Foster City, CA USA), fitted with custom filter sets. All assays were carried out in triplicate on a 96-well PCR plate (PCR plates 96 well BioRad®), manually sealed with transparent capping strips (Flatcap strips BioRad®). The plates were centrifuged for 2 min, 2000 rpm, at 25 °C and then the fluorescence of SYPRO^TM orange (S6650) was monitored (excitation wavelength= 492 nm and emission wavelength= 610 nm), while the plate was heated from 25 to 85 °C, in increments of 1 °C per minute.
The TSA conditions employed in this work were previously optimised. Briefly, 5 µl of PaPhzS (5 µM final concentration), 1 µl of SYPRO^TM orange (5X), 13 µl of assay buffer (50 mM potassium phosphate, 300 mM NaCl, pH 8), and 1 µl DMSO (5% v/v), as a negative control, or the putative inhibitor (diluted in DMSO) were added to each well. All experiments were carried out in triplicate
Raw fluorescence data were recorded within the Applied Biosystems 7500 Software v2.0, and then exported to NAMI[52] for Tm calculation by the first-derivative method.

The target in another data set is T3, PaPhzS-FITC (Pseudomonas aeruginosa, UniProt Q9HWG9).
T3 construct: implied by pET28a and the HisTrap purification); FITC (chemical covalent label, not a peptide; made in house; host or cells: E. coli Rosetta (DE3)
T3 sequence (Q9HWG9 whole entry): as above
The experiment in a line: Affinity to covalently modified PaPhzS (FITC fluorescence). In kind it is binding, P. aeruginosa. The following applies: for BEI (FITC): BEI: (pKd/MW)×1000, from PaPhzS-FITC Kd; for LE (FITC): LE: 1.4*pKd/HA, from PaPhzS-FITC Kd; for affinity to PaPhzS, in words: PaPhzS-FITC assay. On the procedure: PaPhzS (2 mg/mL) was incubated with fluorescein-5-isothiocyanate (FITC) dye (6 mg/mL) containing 50 mM HEPES (pH 8.0) for 2 h, at 25 °C. Then, the solution was loaded on a Hi-Trap HP desalting column (GE Healthcare), previously equilibrated with 50 mM HEPES buffer (pH 8) and 2 CV of the same buffer were injected. The absorbance of the collected fractions was monitored at 280 nm and 490 nm and those with a molar ratio ranging from 0.3 and 1.0[55] were employed for the Kd calculation experiments, as follows: The fluorescence of PaPhzS-FITC, at 25 °C, using in a real-time thermocycler (AppliedBiosystem7500) equipped with the FAN filter (excitation 498 nm and emission 530 nm wavelengths) for 10 min in the presence of different concentrations of each compound (3.12–100.0 µM). The Raw fluorescence data, recorded within the Applied Biosystems 7500 Software v2.0, was employed for non-linear regression analysis (three parameters) (Equation 1), as available in GraphPad Prism 8.0 software (GraphPadV® Software, San Diego, CA, USA, www.graphpad.com). All experiments were carried out in triplicate using 96-well PCR plate (PCR plates 96 well BioRad®), manually sealed with transparent capping strips (Flatcap strips BioRad®).

With `O=C1NC(=O)/C(=C\c2ccc(OCc3nc4ccccc4c(=O)n3-c3ccccc3)cc2)S1` [A, (E)-5–(4-((4-oxo-3-phenyl-3,4-dihydroquinazolin-2-yl)methoxy)benzylidene)thiazolidine-2,4-dione, reference compound], on PaPhzS, the “BEI (DSFit software)” value is 11.0, the Kd (usually the constant that tells how readily two partners part at equilibrium) was 9.3 µM and the “LE (DSFit software)” value is 0.21. In addition, at PhzS from P. aeruginosa, the dissociation constant Kd was 18 µM.
Take `O=C1S/C(=C\c2cc(Cl)ccc2O)C(=O)N1Cc1cccc(Cl)c1`: the melting point (as a rule, the temperature, or range, at which the solid turns liquid) is 201 to 202 °C.
As to `O=C1NC(=O)/C(=C/C=C/c2ccccc2[N+](=O)[O-])S1` [Compound 38, (Z)-5-((E)-3–(2-nitrophenyl)allylidene)thiazolidine-2,4-dione], the melting point is 119 to 120 °C. Besides, the “concentration-response profile of ΔTm” value in data set [1] is “small variation in ΔTm”.
Take `O=C1NC(=O)/C(=C/c2c(O)ccc3ccccc23)S1`: the melting point lay in the range of 194 to 195 °C.
`O=C1NC(=O)/C(=C/c2cc(Cl)ccc2O)S1` [Compound 16]: at PaPhzS, the “BEI (DSFit software)” value is recorded as 21.0, the Kd was 4.2 µM and the “LE (DSFit software)” value was 0.47. For the same compound, at PaPhzS-FITC, binding was put at a Kd of 6.18 ± 0.2 µM; the “BEI (FITC)” value amounted to 20.42; the “affinity to PaPhzS, in words” value was “low micromolar ligands”. At PaPhzS-FITC (listed as Mol 16), the “BEI (FITC)” value was 20.4 and the “LE (FITC)” value is reported as 0.45. Also, the “concentration-response profile of ΔTm” value in data set [1] is “clear concentration-response profile”.
Regarding `O=C1NC(=O)C(=Cc2cc(Cl)cc(Br)c2O)S1` [Compound 15], on PaPhzS, the “BEI (DSFit software)” value is given as 13.3, the Kd is 37.2 µM and the “LE (DSFit software)” value is reported as 0.36. Also, on PaPhzS-FITC, binding was characterised by a dissociation constant (Kd) of 166 ± 0.5 µM; the “BEI (FITC)” value came out at 11.4; the “LE (FITC)” value came to 0.31; the “affinity to PaPhzS, in words” value is “low affinity; also recorded: reduced affinity”. For the same compound, the “concentration-response profile of ΔTm” value in data set [1] is reported as “clear concentration-response profile”.
Turning to `COCn1cc(/C=C2\SC(=O)NC2=O)c2ccccc21` [Compound 33], on PaPhzS, the “BEI (DSFit software)” value is recorded as 14.9, the dissociation constant Kd was 50 µM and the “LE (DSFit software)” value is 0.30. Moreover, at PaPhzS-FITC, the equilibrium dissociation constant (Kd) stood at 84.2 ± 0.2 µM; the “BEI (FITC)” value was found to be 14.1; the “LE (FITC)” value was 0.28; the “affinity to PaPhzS, in words” value is “low affinity”. In addition, in data set [1], the “concentration-response profile of ΔTm” value is on record as “clear concentration-response profile”.
Turning to `COc1cc(OC)c(OC)cc1/C=C1\SC(=O)NC1=O` [Compound 28, (Z-5–(2,4,5-trimethoxybenzylidene)thiazolidine-2,4-dione)], the melting point lay in the range of 158 to 160 °C. The “concentration-response profile of ΔTm” value in data set [1] is recorded as “clear concentration-response profile”.
In the case of `COc1ccc(/C=C2\SC(=O)NC2=O)c(Br)c1O` [Compound 20, (Z) 5–(2-bromo-3-hydroxy-4-methoxybenzylidene)thiazolidine-2,4-dione], the melting point turned out to be 245 °C. Moreover, at PaPhzS, the “BEI (DSFit software)” value is listed as 15.0, the equilibrium dissociation constant (Kd) was 10.5 µM and the “LE (DSFit software)” value is 0.38. Further, on PaPhzS-FITC, the Kd came to 3.3 ± 0.3 µM and the “affinity to PaPhzS, in words” value is given as “low micromolar ligands”. At PaPhzS-FITC (listed as Mol 20), the “BEI (FITC)” value is recorded as 16.6 and the “LE (FITC)” value is listed as 0.42. For the same compound, in data set [1], the “concentration-response profile of ΔTm” value is given as “clear concentration-response profile”.
In the case of `COc1ccc(C(=O)CN2C(=O)S/C(=C\c3ccc(C)cc3)C2=O)cc1`, the melting point lay in the range of 174 to 176 °C.
Still for that read-out and setting: with `O=C1NC(=O)/C(=C/c2cncc3ccccc23)S1` the figure was 118 to 119.5 °C; with `O=C1S/C(=C\c2c(Cl)cccc2Cl)C(=O)N1Cc1cccc(Cl)c1` [Compound 3, (Z)-3–(3-chlorobenzyl)-5–(2,6-dichlorobenzylidene)thiazolidine-2,4-dione], 110 to 111 °C.
As to `Cc1ccc(/C=C2\SC(=O)NC2=O)cc1Br`, the melting point is 196 to 197 °C.
